Laboratory results from patent publication US20010051646A1, “Method for the improvement of islet signaling in diabetes mellitus and for its prevention” (priority 2000, published 2001).

What was measured:
Format in all cases: in vivo, rat
[1] = test system: Male Zucker fa/fa rats; test: Repeated once-daily oral dosing: morning blood glucose and plasma insulin
Description: The parameters monitored were morning blood glucose and plasma insulin levels. In a day-night profile, glycemia and insulinaemia were monitored from day 16 to day 17. An OGTT was performed finally on day 21 to monitor blood glucose and plasma insulin kinetics to assess changes in glucose tolerance. Glibenclamide (DAB 1996; R011150/33372) was donated by Berlin-Chemie (Berlin, Germany). Male Zucker (fa/fa) rats of the body weight class of 300 g were purchased from Charles River (Sulzfeld, Germany).
Housing Conditions: Animals were kept single-housed under conventional conditions with controlled temperature (22±2° C.) on a 12/12 hours light/dark cycle (light on at 06:00 a.m.). Standard pellets (ssniff®, Soest, Germany) and tap water acidified with HCl were allowed ad libitum.
Catheterization of Carotid Artery: After one week of adaptation carotid catheters were implanted in the rats under general anesthesia (injection of 0.25 ml/kg i.p. Rompun® [2%], Bayer, Germany) and 0.5 ml/kg i.p. Velonarkon® (Arzneimittelwerk Dresden, Germany). The animals were allowed to recover for one week. The catheter was flushed with heparin-saline (100 IU/ml) three times per week.
Thereafter, the non-diabetic Wistar rats were treated orally once daily with RP (5 mg/kg b.w.) or TP (21.61 mg/kg b.w.) and the diabetic Zucker rats were treated orally once daily with RP (1 mg/kg b.w.) or TP (21.61 mg/kg b.w.) for 21 days at 05.00 p.m. (before regular food intake in the dark phase). The controls were given 1% cellulose solution orally (5 ml/kg). Blood samples were taken every morning at 07.30 a.m. from tail veins for measurement of blood glucose and plasma insulin. The last blood samples of this part of the program were taken at 07.30 a. m. on the 15th day to measure blood glucose and plasma insulin. The oral drug therapy was continued for one week. Recording the day-night profile under the above therapy blood glucose (Δt=3 h) and plasma insulin (Δt=3-6 h) were monitored from day 16 (at 05.00 p.m. beginning) to day 17 (at 02.00 p.m. end).
Blood glucose: Glucose levels were measured using the glucose oxidase procedure (Super G Glukosemeβgerät; Dr. Müller Gerätebau, Freital, Germany).
Plasma insulin: Insulin concentrations were assayed by the antibody RIA method (LINCO Research, Inc. St. Charles, Mo., USA).

[2] = test system: Male Zucker fa/fa rats; test: Day-night profile of glycemia and insulinemia, day 16 to day 17 of treatment
Description: The parameters monitored were morning blood glucose and plasma insulin levels. […] An OGTT was performed finally on day 21 to monitor blood glucose and plasma insulin kinetics to assess changes in glucose tolerance. Glibenclamide (DAB 1996; R011150/33372) was donated by Berlin-Chemie (Berlin, Germany). Male Zucker (fa/fa) rats of the body weight class of 300 g were purchased from Charles River (Sulzfeld, Germany). […] Thereafter, the non-diabetic Wistar rats were treated orally once daily with RP (5 mg/kg b.w.) or TP (21.61 mg/kg b.w.) and the diabetic Zucker rats were treated orally once daily with RP (1 mg/kg b.w.) or TP (21.61 mg/kg b.w.) for 21 days at 05.00 p.m. (before regular food intake in the dark phase). The controls were given 1% cellulose solution orally (5 ml/kg). […] The oral drug therapy was continued for one week. […] Blood glucose: Glucose levels were measured using the glucose oxidase procedure (Super G Glukosemeβgerät; Dr. Müller Gerätebau, Freital, Germany). Plasma insulin: Insulin concentrations were assayed by the antibody RIA method (LINCO Research, Inc. St. Charles, Mo., USA).

[3] = test system: Male Zucker fa/fa rats; test: OGTT after 21 days treatment: blood glucose and plasma insulin
Description: The parameters monitored were morning blood glucose and plasma insulin levels. […] An OGTT was performed finally on day 21 to monitor blood glucose and plasma insulin kinetics to assess changes in glucose tolerance. Glibenclamide (DAB 1996; R011150/33372) was donated by Berlin-Chemie (Berlin, Germany). Male Zucker (fa/fa) rats of the body weight class of 300 g were purchased from Charles River (Sulzfeld, Germany). Repeated Dosing: 30 male non-diabetic Wistar and 30 male diabetic Zucker rats were randomized to RP (Reference Product: glibenclamide)-, TP- (jest Product: […] Thereafter, the non-diabetic Wistar rats were treated orally once daily with RP (5 mg/kg b.w.) or TP (21.61 mg/kg b.w.) and the diabetic Zucker rats were treated orally once daily with RP (1 mg/kg b.w.) or TP (21.61 mg/kg b.w.) for 21 days at 05.00 p.m. (before regular food intake in the dark phase). The controls were given 1% cellulose solution orally (5 ml/kg). […] The oral drug therapy was continued for one week. […] OGTT: A final OGTT was performed on day 21 with blood sampling from the tail vein. […] The latter were immediately centrifuged and the plasma fractions were stored at −20 ° C. for insulin analysis. Blood glucose: Glucose levels were measured using the glucose oxidase procedure (Super G Glukosemeβgerät; Dr. Müller Gerätebau, Freital, Germany). Plasma insulin: Insulin concentrations were assayed by the antibody RIA method (LINCO Research, Inc. St. Charles, Mo., USA).

Structure (SMILES): COc1ccc(Cl)cc1C(=O)NCCc1ccc(S(=O)(=O)NC(=O)NC2CCCCC2)cc1 [glibenclamide, reference compound]
- Plasma insulin during 14 days in comparison to the control animals ([1]; rat, in vivo): insulin increase to significantly higher concentrations than in control animals
- Increase of morning blood glucose ([1]; within two days of therapy): about 1.5 mmol/l
- Mean blood glucose, day-night profile ([2]; 02.00 p.m. next day, RP 1 mg/kg, TP 21.61 mg/kg orally once daily): 7.34 ± 0.77 mmol/L
- Plasma insulin, day-night profile ([2]; 02.00 p.m. the next day): 58.3 ± 7.3 ng/mL
- Plasma insulin, day-night profile ([2]; 05.00 a.m. (maximum)): 76.3 ± 8.6 ng/mL
- Plasma insulin, day-night profile ([2]; 05.00 p.m., RP 1 mg/kg, TP 21.61 mg/kg orally once daily): 50.0 ± 8.2 ng/mL
- Plasma insulin, day-night profile ([2]; 08.00 p.m.): 57.3 ± 8.2 ng/mL
- Mean blood glucose, day-night profile ([2]; 11.00 a.m., RP 1 mg/kg, TP 21.61 mg/kg orally once daily): 7.66 ± 1.22 mmol/L
- Mean blood glucose, day-night profile ([2]; 11.00 p.m., RP 1 mg/kg, TP 21.61 mg/kg orally once daily): 14.80 ± 1.46 mmol/L
- Mean blood glucose, day-night profile ([2]; day 16, 05.00 p.m. before drug application, RP 1 mg/kg, TP 21.61 mg/kg orally once daily): 7.96 ± 1.13 mmol/L
- Increase of insulin output compared to the control ([2]; obese Zucker rat, subchronic treatment): 27%
- Glycemia at the last drug application ([3]; 05.00 p.m., night before day 21): 8.81 ± 1.21 mmol/L
- G-AUC in comparison to the placebo application ([3]; day 21): increased
- Blood glucose during OGTT ([3]; day 21, 50 min): 16.33 ± 0.98 mmol/L
- Blood glucose during OGTT ([3]; day 21, 80 min): 16.24 ± 1.09 mmol/L
- Blood glucose during OGTT ([3]; day 21, 100 min): 15.13 ± 0.76 mmol/L
- Blood glucose during OGTT ([3]; day 21, 120 min): 14.81 ± 0.66 mmol/L
- Glycemia after overnight fasting (basal, before OGTT) ([3]; day 21, morning (07.30 a. m.)): 4.91 ± 0.37 mmol/L
- Fasting plasma insulin at the beginning of the OGTT ([3]; day 21, overnight fasting, listed as RP): ~12.5 ng/mL
- Blood glucose increase after the glucose load ([3]; day 21 OGTT): about 11 mmol
- Plasma insulin after a glucose stimulus ([3]; day 21 OGTT): remained mostly unchanged
- Glucose area under the curve (G-AUC0-120 min) ([3]; day 21 OGTT, CO-group 823±41): 1096 ± 76 mmol·min/L
